The target of one data set is T1, Human LPA3 (Homo sapiens, UniProt Q9UBY5).
T1 construct: expressed in transfected cells; host or cells: mouse embryonic fibroblasts (MEF) or rat hepatoma RH7777
T1 sequence (Q9UBY5 1-353): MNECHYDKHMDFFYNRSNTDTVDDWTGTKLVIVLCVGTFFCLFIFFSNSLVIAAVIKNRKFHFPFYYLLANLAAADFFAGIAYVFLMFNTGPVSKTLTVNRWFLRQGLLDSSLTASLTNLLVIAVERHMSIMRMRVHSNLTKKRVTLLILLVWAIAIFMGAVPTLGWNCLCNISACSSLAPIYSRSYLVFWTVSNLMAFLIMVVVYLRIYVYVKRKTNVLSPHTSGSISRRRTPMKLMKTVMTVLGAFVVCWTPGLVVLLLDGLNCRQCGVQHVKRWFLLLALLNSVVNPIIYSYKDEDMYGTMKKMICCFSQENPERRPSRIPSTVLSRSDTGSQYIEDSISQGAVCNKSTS
Briefly: Calcium-mobilization assay (FURA-2), human LPA3 transfected cells. It is filed as cell-based. The settings on record: for EC50: EC50 [nM], mean. As for the experimental part:
(§1) We investigated structure-activity relationships across species, LPAR subtypes and between Rx100 and two known process impurities encountered in manufacture: Rx103 (‘E’ isomer) and Rx200 (oleyl phosphate and impurity, which can be an Rx100 degradant along with oleyl alcohol). Rx100, Rx103, Rx200 and native LPA were investigated at different human LPAR subtypes. In addition, the activity of these compounds was evaluated at LPA2 receptors from the rhesus, rat and mouse species. Human LPA1/2/3 subtypes were transfected into mouse embryonic fibroblasts (MEF) or rat hepatoma cells (RH7777)—both of which are normally non-responsive or null to LPA. Human LPA4 was transfected into Chinese hamster ovary (CHO) cells and LPA5 into the B103 neuroblastoma cell line. […] The B103 rat neuroblastoma cell line is endogenously nonresponsive to LPA but expresses heterologous LPA5 receptors well. […] LPAR activation elicits a G-protein-mediated transient rise in intracellular calcium level that is proportional to the concentration of LPA applied. The intracellular calcium level was quantified by the calcium-selective fluorescent indicator FURA-2 (e.g., increased intracellular calcium surge=increased fluorescence).

The target in another data set is T2, Human LPA4 (Homo sapiens, UniProt Q99677).
T2 construct: expressed in transfected cells; host or cells: CHO
T2 sequence (Q99677 whole entry): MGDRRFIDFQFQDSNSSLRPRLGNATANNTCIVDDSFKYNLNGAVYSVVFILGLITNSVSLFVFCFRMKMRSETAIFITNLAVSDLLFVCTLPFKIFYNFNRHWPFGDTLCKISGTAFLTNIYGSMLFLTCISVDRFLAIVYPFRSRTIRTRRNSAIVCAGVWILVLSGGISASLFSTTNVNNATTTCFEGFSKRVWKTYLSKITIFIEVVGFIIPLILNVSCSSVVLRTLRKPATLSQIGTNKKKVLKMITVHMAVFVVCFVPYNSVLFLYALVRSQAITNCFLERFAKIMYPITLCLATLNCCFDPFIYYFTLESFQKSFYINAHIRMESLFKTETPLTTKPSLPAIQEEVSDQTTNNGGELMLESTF
The data set can be described thus: Calcium-mobilization assay (FURA-2), human LPA4 in CHO cells. In kind it is cell-based. As for the experimental part:
as §1

For another data set, the system named is Beagle dogs. The data set can be described thus: Single-dose subcutaneous toxicity in dogs. In kind it is in vivo. The source says: One group of one male and one female Beagle dogs received single escalating subcutaneous doses of Rx100.Lysine at 10 and 1 (female)/1.52 (male) mg/kg. […] Parameters evaluated included clinical signs, body weight, and gross pathology. The male and female dog survived until scheduled necropsy on Day 15. Administration of Rx100 had no effect on body weight or general health of the animals. Noteworthy clinical observations were confined to skin and behavior effects. Both animals scratched at the dose site, likely contributing to observations of redness at the dose site. Swelling and a thickened/raised area were also observed during the observation period. Clinical observations were sufficient to warrant the injection of diphenhydramine. […] Following injection of the L-lysine component of the formulation at an independent site, redness, scratching, or swelling was not seen.

Data set [1] can be described thus: Rx100 salt screening (solid formation, XRPD wet/dry, filterability, exposure to RH > 90%). As for the experimental part:
We designed a complex and unconventional screening regime to screen for Rx100 crystalline salts. […] The screening regime is described as follows.
Rx100.FA in the form of a viscous liquid and eighteen counter ions were used as starting materials. These counter ions are listed and numbered in Table 4. The numbers will be used for grouping the resulting solids. The screening was performed in three stages.
Stage one (1) included screening 11 counter ions: sodium hydroxide, ammonium hydroxide, ethylenediamine, diethylamine, tromethamine (Tris), hydroxyethyl morpholine, benzathine, dimethylamino ethanol, L-Arginine, L-Lysine, L-Histidine. […] In stage 1, we performed three rounds of experiment.
In the first round of experiment, four (4) solvent systems, i.e., isopropyl alcohol (IPA), diethyl ether (DEE), IPA:water (a mixture at a volume ratio of 95:5) and tetrahydrofuran (THF), were used. Thus in this first round of screening, 44 individual base-acid reactions were conducted in 44 vials.
First, Rx100.FA and each of the bases were mixed in a vial. […] In each of the 44 vials, 211.1 μL of the prepared liquid, which was equivalent to about 35 mg of Rx100.FA, was first dispensed. Then, one equivalent (molar) of each of the 11 bases was dispensed in its corresponding vial. For example, the base sodium hydroxide was added to vials 1, 12, 23 and 34. Similarly, L-histidine was added to vials 11, 22, 33 and 44. Observations were recorded upon addition of the bases in to Rx100.FA.
Second, the solvent in each mixture was depleted. All vials containing the mixtures of Rx100.FA and each of the bases were left under moderate vacuum and nitrogen bleed at room temperature overnight to evaporate the solvent. The vials were then kept under full vacuum for about an hour to make sure the solvents (ethanol and water) are evaporated. Observations on formation of solid upon evaporation were recorded.
Third, solvents were added in each vial to induce solid formation. In each vial, a stir bar and one of the four selected solvents (each 5 volumes with respect to the Rx100.FA) were added. The vials were then capped. IPA was added to the first set of 11 vials (1-11), DEE added to the second set of 11 vials (12-22), IPA:water added to the third set of 11 vials (23-33), and THF added to the fourth set of 11 vials (34-44). The vials were left at room temperature while stirring for at least 5 hours. Observations were recorded.
The first set of XRPD analyses were recorded as “wet” samples. The solids were dried under vacuum for 1 hour and at room temperature followed by XRPD as “dry” sample. The dry solid was then exposed to relative humidity of more than 90% overnight followed by XRPD analysis. For XRPD naming, a number and a letter were used. The number refers to the counter ion and the letter refers to the chronological discovered XRPD pattern of that particular salt.
In the second round of experiment of stage one, another four (4) solvent systems, i.e., methanol (MeOH), tert-Butyl methyl ether (tBME), ethyl acetate and toluene, were used in the same 44 vials as used in the first round experiment. The solvents in all 44 vials from the first round were evaporated to dryness under vacuum and nitrogen bleed. The 4 new solvents were then added into the vials. Methanol was added to the first set of 11 vials (1-11), tBME added to the second set of 11 vials (12-22), Ethyl acetate added to the third set of 11 vials (23-33), and Toluene added to the fourth set of 11 vials (34-44). The same procedure as in the first round of experiment was followed for these new solvents and samples were taken for XRPD analysis.
In the third round of experiment, effect of base equivalence was assessed. […] After addition of the extra base, the previous solvent was evaporated and new solvents added.

Read-outs that look alike come from different tables or passages of the source.

Experimental findings from patent US20170226139A1, “CRYSTALLINE SALTS OF (Z)-O-OCTADEC-9-EN-1-YL O,O-DIHYDROGEN PHOSPHOROTHIOATE” (priority 2013, published 2017) are described below.

The EC50 is the concentration that produces a half-maximal response. One may read the Emax as the greatest response seen or fitted, relative to the assay's reference. For `CCCCCCCC/C=C\CCCCCCCCOP(O)(O)=S` [Rx100, (Z)—O-octadec-9-en-1-yl O,O-dihydrogen phosphorothioate], the EC50 at Human LPA3 (LPA3 DKO MEF, human) is 205 nM; on Human LPA3 (LPA3 RH7777, human), 113 nM; on Human LPA4, greater than 5000 nM. The Emax at Human LPA3 (RH7777, read-out: Emax (% of LPA)) came out at 71%; at Human LPA3 (read-out: Emax (% of LPA)), 82%; on Human LPA4 (CHO, read-out: Emax (% of LPA)), 97%.

On to `CCCCCCCC/C=C\CCCCCCCCOP(O)(O)=S` [Rx100.L-Lysine, (Z)—O-octadec-9-en-1-yl O,O-dihydrogen phosphorothioate], for which, in the data set with Beagle dogs (1 mg/kg dose), the “clinical observations at dose sites” value is “persistent scratching and swelling at dose sites”; the “macroscopic and microscopic findings at dose sites” value is “No remarkable findings”. Besides, the “tolerability of subcutaneous injection” value in the data set on Beagle dogs (Rx100 formulation, beagle dogs) was “not tolerated”. In the data set on Beagle dogs (injection site A (10 mg/kg), both animals), the “microscopic examination of injection site” value was “chronic-active inflammation with necrosis and vascular thrombus formation”. The “effect on body weight or general health” value in the data set on Beagle dogs (single escalating SC doses 10 and 1/1.52 mg/kg) is “no effect”. In data set [1], the “Stability at high humidity” value is given as “stable at high humidity”. Also, in data set [1] (Rx100 salt formed with the named base, XRPD, listed as Rx100.L-Lysine salt), the Crystallinity result is given as “showed crystallinity”. The Filterability entry in data set [1] (Rx100 salt formed with the named base, listed as Rx100.L-Lysine salt) was “filterable”.
